# Measured values from patent US8461328B2, “Tricyclic heterocyclic compounds, compositions and methods of use thereof” (Genentech, Inc., priority 2010, dated 2013).
# pKi: −log10 of the molar value. Where two headings read alike, the source gives them in different places.
# Key:
# Type in all cases: biochemical
# JAK3 = target: T1, JAK3 (Homo sapiens, UniProt P52333); assay: JAK3 inhibition (Table 4)
# T1 construct: made in house; host or cells: SF9 insect cells (baculovirus)
# TYK2 = target: T2, TYK2 (Homo sapiens, UniProt P29597); assay: TYK2 inhibition (Table 4)
# T2 construct: made in house; host or cells: SF9 insect cells (baculovirus)
# T2 sequence (P29597 873-1187): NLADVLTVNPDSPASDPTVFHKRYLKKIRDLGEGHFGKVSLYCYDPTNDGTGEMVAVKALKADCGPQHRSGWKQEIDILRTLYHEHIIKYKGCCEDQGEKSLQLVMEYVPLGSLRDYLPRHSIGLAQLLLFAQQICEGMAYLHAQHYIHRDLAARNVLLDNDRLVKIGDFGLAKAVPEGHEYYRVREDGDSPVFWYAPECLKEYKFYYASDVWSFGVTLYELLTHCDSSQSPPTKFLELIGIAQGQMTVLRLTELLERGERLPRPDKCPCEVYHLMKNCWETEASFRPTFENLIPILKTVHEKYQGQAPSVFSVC
# JAK2 = target: T3, JAK2 (Homo sapiens, UniProt O60674); assay: JAK2 inhibition (Table 4); settings: read-out: JAK2 Ki
# T3 construct: made in house; host or cells: SF9 insect cells (baculovirus)
# JAK1 = target: T4, JAK1 (Homo sapiens, UniProt P23458); assay: JAK1 inhibition (Table 4)
# T4 construct: made in house; host or cells: SF9 insect cells (baculovirus)
# T4 sequence (P23458 852-1154): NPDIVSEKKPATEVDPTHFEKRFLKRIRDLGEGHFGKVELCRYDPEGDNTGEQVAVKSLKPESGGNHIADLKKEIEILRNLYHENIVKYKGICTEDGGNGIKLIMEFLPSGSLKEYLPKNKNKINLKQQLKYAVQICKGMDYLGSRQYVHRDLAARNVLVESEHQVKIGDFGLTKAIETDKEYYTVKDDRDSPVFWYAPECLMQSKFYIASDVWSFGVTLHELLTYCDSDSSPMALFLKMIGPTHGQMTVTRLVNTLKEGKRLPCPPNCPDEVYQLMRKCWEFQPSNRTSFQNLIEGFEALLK
# T3 sequence (O60674 812-1132): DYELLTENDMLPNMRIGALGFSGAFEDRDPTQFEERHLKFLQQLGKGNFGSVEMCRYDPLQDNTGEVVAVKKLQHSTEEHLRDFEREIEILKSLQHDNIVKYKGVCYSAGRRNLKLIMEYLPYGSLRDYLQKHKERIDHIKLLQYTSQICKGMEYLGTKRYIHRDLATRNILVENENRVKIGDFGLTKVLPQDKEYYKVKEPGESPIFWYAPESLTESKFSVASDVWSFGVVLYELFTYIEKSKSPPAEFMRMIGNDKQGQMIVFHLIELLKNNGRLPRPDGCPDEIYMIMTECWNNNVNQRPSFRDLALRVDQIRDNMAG
# T1 sequence (P52333 783-1124): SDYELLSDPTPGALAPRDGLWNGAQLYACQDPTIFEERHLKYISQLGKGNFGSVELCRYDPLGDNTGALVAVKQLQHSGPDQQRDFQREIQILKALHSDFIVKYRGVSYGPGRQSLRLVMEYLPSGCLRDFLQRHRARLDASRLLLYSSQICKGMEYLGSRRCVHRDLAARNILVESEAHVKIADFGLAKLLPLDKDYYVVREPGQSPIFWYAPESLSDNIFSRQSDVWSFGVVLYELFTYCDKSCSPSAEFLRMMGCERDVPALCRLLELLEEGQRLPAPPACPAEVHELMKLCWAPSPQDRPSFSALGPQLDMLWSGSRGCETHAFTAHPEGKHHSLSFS
pKi (JAK3; read-out: JAK3 Ki),pKi (TYK2),pKi (JAK2),pKi (JAK1; read-out: JAK1 Ki),pKi (JAK3; JAK3 Ki),pKi (JAK1; JAK1 Ki),Molecule
7.44,7.95,7.18,8.02,–,–,"3-[6-benzenesulfonyl-2-((R)-1-hydroxy-ethyl]-6H-1,3,5,6-tetraaza-as-indecen-1-yl}-cyclohexanecarbonitrile [Example 742]"
8.27,8.12,8.56,8.66,–,–,"Cc1nc2cnc3[nH]ccc3c2n1C1CCCCC1C (mixture of isomers) [Example 516, 2-Methyl-1-(2-methyl-cyclohexyl)-1,6-dihydro-1,3,5,6-tetraaza-as-indacene]"
–,9.29,9.02,–,8.28,9.57,"N#CCC1CCC(n2c(CO)nc3cnc4[nH]ccc4c32)CC1 (mixture of isomers) [Example 643, [4-(2-Hydroxymethyl-6H-1,2,3,5,6-tetraaza-as-indacen-1-yl)-cyclohexyl]-acetonitrile]"
7.16,7.42,7.41,8.32,–,–,"C[C@@H](O)c1nc2cnc3[nH]ccc3c2n1C1CCC(CS(C)(=O)=O)CC1 (mixture of isomers) [Example 649, (R)-1-[1-(4-Methanesulfonylmethyl-cyclohexyl)-1,6-dihydro-1,2,3,5,6-tetraaza-as-indacen-2-yl]-ethanol]"
7.58,7.68,7.98,8.31,–,–,"O=C1CC2CCC(n3cnc4cnc5[nH]ccc5c43)CC2N1 (racemic) [Example 111, 6-(6H-1,2,3,5,6-Tetraaza-as-indacen-1-yl)-octahydro-indol-2-one]"
–,5.82,6.22,7.19,–,–,"O=C([C@@H]1CCCN1C1CCC1)N1CCC(n2cnc3cnc4[nH]ccc4c32)CC1 [Example 147, ((S)-1-Cyclobutyl-pyrrolidin-2-yl)-[4-(6H-1,2,3,5,6-tetraaza-as-indacen-1-yl)-piperidin-1-yl]-methanone]"
–,5.53,6.73,6.53,–,–,"CC(C)(C)OC(=O)N1CCC(n2c(C#N)nc3cnc4[nH]ccc4c32)CC1 [Example 169, 4-(2-Cyano-6H-1,2,3,5,6-tetraaza-as-indacen-1-yl)-piperidine-1-carboxylic acid tert-butyl ester]"
–,5.85,6.44,7.05,–,–,"N#Cc1cccc(CC(=O)N2CC[C@@H](n3cnc4cnc5[nH]ccc5c43)C2)c1 [Example 189, 3-{2-oxo-2-[(R)-3-(6H-1,2,3,5,6-tetraaza-as-indacen-1-yl)-pyrrolidin-1-yl]-ethyl}-benzonitrile]"
–,5.50,6.16,6.96,–,–,"CN1CCN(CC(=O)N2CCC(n3cnc4cnc5[nH]ccc5c43)CC2)CC1 [Example 193, 2-(4-Methyl-piperazin-1-yl)-1-[4-(6H-1,2,3,5,6-tetraaza-as-indacen-1-yl)-piperidin-1-yl]-ethanone]"
6.40,5.46,–,6.70,–,–,"CN(C(=O)Cc1nc2cnc3[nH]ccc3c2n1C1CCNCC1)C1CCCC1 [Example 257, N-Cyclopentyl-N-methyl-2-(1-piperidin-4-yl-1,6-dihydro-1,3,5,6-tetraaza-as-indacen-2-yl)-acetamide]"
–,5.62,6.40,7.29,–,–,Cc1nc2cnc3[nH]ccc3c2n1C1CCN(C(=O)[C@@H]2CCCN2C)CC1 [Example 285]
–,5.65,6.05,6.68,–,–,"CN(C)CC(=O)N1CC[C@@H](n2cnc3cnc4[nH]ccc4c32)C1 [Example 429, 2-Dimethylamino-1-[(R)-3-(6H-1,3,5,6-tetraaza-as-indacen-1-yl)-pyrrolidin-1-yl]-ethanone]"
–,6.53,7.06,7.65,–,–,"N#Cc1ccc(S(=O)(=O)N2CC[C@@H](n3cnc4cnc5[nH]ccc5c43)C2)cc1 [Example 433, 4-[(R)-3-(6H-1,3,5,6-Tetraaza-as-indacen-1-yl)-pyrrolidine-1-sulfonyl]-benzonitrile]"
–,5.47,6.43,6.32,–,–,"Cc1nc(S(=O)(=O)N2CCC(n3cnc4cnc5[nH]ccc5c43)CC2)cn1C [Example 444, 1-[1-(1,2-Dimethyl-1H-imidazole-4-sulfonyl)-piperidin-4-yl]-1,6-dihydro-1,3,5,6-tetraaza-as-indacene]"
–,5.55,6.31,6.65,–,–,"CC(C)N1CCC(n2nnc3cnc4[nH]ccc4c32)CC1 [Example 548, 1-(1-Isopropyl-piperidin-4-yl)-1,6-dihydro-1,2,3,5,6-pentaaza-as-indacene]"
6.05,–,5.58,7.16,–,–,"C[C@@H](O)c1nc2cnc3[nH]ccc3c2n1[C@@H]1CCCN(C(=O)Cn2ccnc2)C1 [Example 798, 1-{(R)-3-[2-((R)-1-Hydroxy-ethyl)-6H-1,3,5,6-tetraaza-as-indacen-1-yl]-piperidin-1-yl}-2-imidazol-1-yl-ethanone]"
6.22,–,5.92,7.61,–,–,"CC(C)n1cc(CN2CCC(n3c([C@@H](C)O)nc4cnc5[nH]ccc5c43)CC2)cn1 [Example 824, (R)-1-{1-[1-(1-Isopropyl-1H-pyrazol-4-ylmethyl)-piperidin-4-yl]-1,6-dihydro-1,3,5,6-tetraaza-as-indacen-2-yl}-ethanol]"
5.84,–,5.76,7.13,–,–,"Cc1nc(CN2CCC(n3c([C@@H](C)O)nc4cnc5[nH]ccc5c43)CC2)n(C)c1C [Example 827, (R)-1-{1-[1-(1,4,5-Trimethyl-1H-imidazol-2-ylmethyl)-piperidin-4-yl]-1,6-dihydro-1,3,5,6-tetraaza-as-indacen-2-yl}-ethanol]"
6.02,–,5.78,7.04,–,–,"Cc1nn(C)cc1CN1CCC(n2c([C@@H](C)O)nc3cnc4[nH]ccc4c32)CC1 [Example 828, (R)-1-{1-[1-(1,3-Dimethyl-1H-pyrazol-4-ylmethyl)-piperidin-4-yl]-1,6-dihydro-1,3,5,6-tetraaza-as-indacen-2-yl}-ethanol]"
5.88,–,6.03,7.03,–,–,"CCn1cc(CN2CCC(n3c([C@@H](C)O)nc4cnc5[nH]ccc5c43)CC2)c(C)n1 [Example 829, (R)-1-{1-[1-(1-Ethyl-3-methyl-1H-pyrazol-4-ylmethyl)-piperidin-4-yl]-1,6-dihydro-1,3,5,6-tetraaza-as-indacen-2-yl}-ethanol]"
6.15,–,5.76,6.96,–,–,"Cc1ncc(CN2CCC(n3c([C@@H](C)O)nc4cnc5[nH]ccc5c43)CC2)n1C [Example 830, (R)-1-{1-[1-(2,3-Dimethyl-3H-imidazol-4-ylmethyl)-piperidin-4-yl]-1,6-dihydro-1,3,5,6-tetraaza-as-indacen-2-yl}-ethanol]"
6.00,–,5.57,6.51,–,–,"Cc1nn(C)c(C)c1CN1CCC(n2c([C@@H](C)O)nc3cnc4[nH]ccc4c32)CC1 [Example 831, (R)-1-{1-[1-(1,3,5-Trimethyl-1H-pyrazol-4-ylmethyl)-piperidin-4-yl]-1,6-dihydro-1,3,5,6-tetraaza-as-indacen-2-yl}-ethanol]"
7.28,7.70,–,8.11,–,–,"OC[C@H](O)c1nc2cnc3[nH]ccc3c2n1C1CCCCC1 [Example 858, (R)-1-(1-Cyclohexyl-1,6-dihydro-1,3,5,6-tetraaza-as-indacen-2-yl)-ethane-1,2-diol]"
5.86,–,5.84,6.57,–,–,"C[C@@H](O)c1nc2cnc3[nH]ccc3c2n1C1CCN(CC(=O)N2CCOCC2)CC1 [Example 870, 2-{4-[2-((R)-1-Hydroxy-ethyl)-6H-1,3,5,6-tetraaza-as-indacen-1-yl]-piperidin-1-yl}-1-morpholin-4-yl-ethanone]"
6.00,–,6.01,6.79,–,–,"C[C@@H](O)c1nc2cnc3[nH]ccc3c2n1C1CCN(CC(=O)N2CCCC2)CC1 [Example 872, 2-{4-[2-((R)-1-Hydroxy-ethyl)-6H-1,3,5,6-tetraaza-as-indacen-1-yl]-piperidin-1-yl}-1-pyrrolidin-1-yl-ethanone]"
–,5.75,6.29,7.36,–,–,"CCN1CCCC[C@H]1C(=O)N1CCC(n2cnc3cnc4[nH]ccc4c32)CC1 [Example 949, ((S)-1-Ethyl-piperidin-2-yl)-[4-(6H-1,3,5,6-tetraaza-as-indacen-1-yl)-piperidin-1-yl]-methanone]"
–,5.54,6.32,6.85,–,–,"O=C([C@@H]1CCCCN1C1COC1)N1CCC(n2cnc3cnc4[nH]ccc4c32)CC1 [Example 951, ((S)-1-Oxetan-3-yl-piperidin-2-yl)-[4-(6H-1,3,5,6-tetraaza-as-indacen-1-yl)-piperidin-1-yl]-methanone]"

Molecule,pKi (JAK3; read-out: JAK3 Ki),pKi (TYK2),pKi (JAK2),pKi (JAK1; read-out: JAK1 Ki),pKi (JAK3; JAK3 Ki),pKi (JAK1; JAK1 Ki)
"OCC(O)c1nc2cnc3[nH]ccc3c2n1C1CCCCC1 (racemic) [Example 853, 1-(1-Cyclohexyl-1,6-dihydro-1,3,5,6-tetraaza-as-indacen-2-yl)-ethane-1,2-diol]",7.69,8.28,–,8.70,–,–
"OC[C@@H](O)c1nc2cnc3[nH]ccc3c2n1C1CCCCC1 [Example 688, (S)-1-(1-Cyclohexyl-1,6-dihydro-1,2,3,5,6-tetraaza-as-indacen-2-yl)-ethane-1,2-diol]",7.79,8.33,–,8.75,–,–
